Test results published in PubChem BioAssay (NCI).
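How tested: cells in 96-well plates exposed to compound for 48 hours at five concentrations. At the GI50, growth is halved. Definition used: TGI = concentration required for complete inhibition of growth.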

What was measured:
Test in all cases: NCI-60 cell line screen, 48 h
U251 CNS = test system: U251 CNS
SF-268 CNS = test system: SF-268 CNS
BT-549 breast = test system: BT-549 breast
A549 NSCLC = test system: A549 NSCLC
HCC-2998 colon = test system: HCC-2998 colon
HS 578T breast = test system: HS 578T breast
UO-31 renal = test system: UO-31 renal
HT29 colon = test system: HT29 colon
RPMI-8226 leukemia = test system: RPMI-8226 leukemia
RXF 393 renal = test system: RXF 393 renal

CCSc1ccc(C2C(Br)C(=O)N2c2cc(OC)c(OC)c(OC)c2)cc1 (stereo not drawn)
GI50 (U251 CNS): 0.345 µM | TGI (U251 CNS): 39.8 µM | GI50 (SF-268 CNS): 1.18 µM | TGI (SF-268 CNS): 52.7 µM | GI50 (BT-549 breast): 0.525 µM | TGI (BT-549 breast): 11.8 µM | GI50 (A549 NSCLC): 0.598 µM | TGI (A549 NSCLC): > 100 µM | GI50 (HCC-2998 colon): 0.673 µM | TGI (HCC-2998 colon): 29.1 µM | GI50 (HS 578T breast): 0.229 µM | TGI (HS 578T breast): > 100 µM | GI50 (UO-31 renal): 0.342 µM | TGI (UO-31 renal): 15.5 µM | GI50 (HT29 colon): 0.351 µM | TGI (HT29 colon): 12.3 µM | GI50 (RPMI-8226 leukemia): 0.361 µM | TGI (RPMI-8226 leukemia): 4.37 µM

CN(C)C(=O)Oc1c(-c2ccccc2)c(=O)n2c3ccccc3n3c(=O)n(C)c(=O)c1c23
TGI (U251 CNS): > 100 µM | TGI (SF-268 CNS): > 100 µM | TGI (RXF 393 renal): > 100 µM | TGI (A549 NSCLC): > 100 µM | TGI (HCC-2998 colon): > 100 µM | TGI (UO-31 renal): > 100 µM | TGI (HT29 colon): > 100 µM | TGI (RPMI-8226 leukemia): > 100 µM

O=C(CCC(=O)C1CCC/C1=N/O)Nc1ccc(Cl)cc1 (stereo not drawn)
TGI (U251 CNS): > 100 µM | TGI (SF-268 CNS): > 100 µM | TGI (A549 NSCLC): > 100 µM | TGI (HCC-2998 colon): > 100 µM | TGI (UO-31 renal): > 100 µM | TGI (HT29 colon): > 100 µM | TGI (RPMI-8226 leukemia): > 100 µM

CC(=O)N/C(=C\c1ccc(Cc2nc3c([nH]2)C(=O)c2ccccc2C3=O)cc1)c1nc2c([nH]1)C(=O)c1ccccc1C2=O
TGI (U251 CNS): > 100 µM | TGI (SF-268 CNS): > 100 µM | TGI (RXF 393 renal): > 100 µM | TGI (A549 NSCLC): > 100 µM | TGI (HCC-2998 colon): > 100 µM | TGI (UO-31 renal): > 100 µM | TGI (HT29 colon): > 100 µM | TGI (RPMI-8226 leukemia): > 100 µM

CC(=O)[O-].O=C([CH-]C(=O)c1ccccc1)c1ccccc1.O=C([CH-]C(=O)c1ccccc1)c1ccccc1.[Sm+3]
GI50 (U251 CNS): 5.93 µM | TGI (U251 CNS): 35.3 µM | GI50 (SF-268 CNS): 3.39 µM | TGI (SF-268 CNS): 24.5 µM | GI50 (A549 NSCLC): 6.11 µM | TGI (A549 NSCLC): 29.5 µM | GI50 (HCC-2998 colon): 3.81 µM | TGI (HCC-2998 colon): 14.6 µM | GI50 (UO-31 renal): 3.79 µM | TGI (UO-31 renal): 12.5 µM | GI50 (HT29 colon): 6.59 µM | TGI (HT29 colon): 19 µM | GI50 (RPMI-8226 leukemia): 5.57 µM | TGI (RPMI-8226 leukemia): 33.8 µM

O=C1C(Cl)=C(Nc2cccc(O)c2)C(=O)N1Cc1ccc(Cl)cc1Cl
GI50 (U251 CNS): 4.31 µM | TGI (U251 CNS): 15.5 µM | GI50 (SF-268 CNS): 6.09 µM | TGI (SF-268 CNS): 21.9 µM | GI50 (RXF 393 renal): 1.06 µM | TGI (RXF 393 renal): 11.1 µM | GI50 (A549 NSCLC): 8.33 µM | TGI (A549 NSCLC): 28.1 µM | GI50 (HCC-2998 colon): 3.55 µM | TGI (HCC-2998 colon): 16.4 µM | GI50 (HS 578T breast): 1.66 µM | TGI (HS 578T breast): 21.8 µM | GI50 (UO-31 renal): 1.87 µM | TGI (UO-31 renal): 14.5 µM | GI50 (HT29 colon): 1.29 µM | TGI (HT29 colon): 90.3 µM | GI50 (RPMI-8226 leukemia): 1.08 µM | TGI (RPMI-8226 leukemia): 14 µM

Cn1cccc1/C=C/c1cc(Br)c(/C=C/c2cccn2C)cc1Br
TGI (U251 CNS): 28.6 µM | TGI (SF-268 CNS): 91.9 µM | TGI (RXF 393 renal): 25.1 µM | TGI (A549 NSCLC): 39.1 µM | TGI (HCC-2998 colon): 16.6 µM | TGI (UO-31 renal): 48 µM | TGI (HT29 colon): 41.5 µM | TGI (RPMI-8226 leukemia): 41.3 µM

O=C(NC(=O)c1ccccc1[N+](=O)[O-])Nc1ccc(Oc2ncc(Cl)cn2)c(C(F)(F)F)c1
TGI (U251 CNS): 10.8 µM | TGI (SF-268 CNS): 38.4 µM | TGI (A549 NSCLC): > 100 µM | TGI (HCC-2998 colon): 0.0775 µM | TGI (HS 578T breast): 2.45 µM | TGI (UO-31 renal): 35.2 µM | TGI (HT29 colon): 0.167 µM | TGI (RPMI-8226 leukemia): > 67.9 µM

O=NN(CCCl)C(=O)NC1CCC(CC2CCC(NC(=O)N(CCCl)N=O)CC2)CC1 (stereo not drawn)
TGI (U251 CNS): 46.2 µM | TGI (SF-268 CNS): > 52.4 µM | TGI (RXF 393 renal): 44.6 µM | TGI (A549 NSCLC): > 100 µM | TGI (HCC-2998 colon): > 100 µM | TGI (UO-31 renal): 99.9 µM | TGI (HT29 colon): > 100 µM | TGI (RPMI-8226 leukemia): > 77.8 µM

N#CCC(=O)N1CCCCCCC1
TGI (U251 CNS): > 100 µM | TGI (SF-268 CNS): > 100 µM | TGI (RXF 393 renal): > 100 µM | TGI (A549 NSCLC): > 100 µM | TGI (HCC-2998 colon): > 100 µM | TGI (UO-31 renal): > 100 µM | TGI (HT29 colon): > 100 µM

CC(C)=CC(=O)Cc1nc2ccc([N+](=O)[O-])cc2[nH]c1=O
TGI (SF-268 CNS): > 100 µM | TGI (RXF 393 renal): > 100 µM | TGI (A549 NSCLC): > 100 µM | TGI (UO-31 renal): > 100 µM | TGI (HT29 colon): > 100 µM | TGI (RPMI-8226 leukemia): > 100 µM

O=C(CC/C(CC(=O)c1ccc(Br)cc1)=N\O)Nc1ccc(Cl)c(Cl)c1
TGI (U251 CNS): > 100 µM | TGI (SF-268 CNS): > 100 µM | TGI (RXF 393 renal): 90.7 µM | TGI (A549 NSCLC): > 100 µM | TGI (HCC-2998 colon): > 100 µM | TGI (UO-31 renal): > 100 µM | TGI (HT29 colon): > 100 µM | TGI (RPMI-8226 leukemia): > 100 µM

CCC[CH2][Sn]1([CH2]CCC)[O]CC(C)[O]1 (stereo not drawn)
GI50 (U251 CNS): 1.39 µM | TGI (U251 CNS): 2.72 µM | GI50 (RXF 393 renal): 1.46 µM | TGI (RXF 393 renal): 2.99 µM | GI50 (A549 NSCLC): 9.72 µM | TGI (A549 NSCLC): 21.8 µM | GI50 (HCC-2998 colon): 1.46 µM | TGI (HCC-2998 colon): 2.91 µM | GI50 (UO-31 renal): 1.54 µM | TGI (UO-31 renal): 3.1 µM | GI50 (HT29 colon): 1.74 µM | TGI (HT29 colon): 3.44 µM | GI50 (RPMI-8226 leukemia): 0.309 µM | TGI (RPMI-8226 leukemia): 2.07 µM

Cc1ccc(C(=O)CC2=Nc3nnc(CCCCCCCc4nnc5n4C(=O)C(CC(=O)c4ccc(C)cc4)=N5)n3C2=O)cc1
TGI (U251 CNS): > 100 µM | TGI (SF-268 CNS): > 100 µM | TGI (RXF 393 renal): > 100 µM | TGI (A549 NSCLC): > 100 µM | TGI (HCC-2998 colon): > 100 µM | TGI (UO-31 renal): > 100 µM | TGI (HT29 colon): > 100 µM | TGI (RPMI-8226 leukemia): > 100 µM

O=C(O)Cn1cc([N+](=O)[O-])c(=O)c2ccccc21
TGI (U251 CNS): > 100 µM | TGI (SF-268 CNS): > 100 µM | TGI (BT-549 breast): > 100 µM | TGI (A549 NSCLC): > 100 µM | TGI (HCC-2998 colon): > 100 µM | TGI (HS 578T breast): > 100 µM | TGI (UO-31 renal): > 100 µM | TGI (HT29 colon): > 100 µM
